This is an account of results in PubChem BioAssay (NCI).

Common to all, as to assay: NCI tumour cell line growth inhibition, 48 h
Assay [1] concerns 786-0 renal.
In assay [2] the test system is HCT-15 colon.
The test system of assay [3] is HOP-92 NSCLC.
Assay [4] deals with M14 melanoma.
For assay [5], the system named is MCF7 breast.
The test system of assay [6] is MDA-MB-435.
Assay [7] has as its system MOLT-4 leukemia.
For assay [8], the system named is PC-3 prostate.
Assay [9] deals with SK-MEL-2 melanoma.
Assay [10] concerns T-47D breast.

“And” between values parts separate entries of the source, which are not always exact repeats. Equal entries are not always repeated.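 Exposure lasted 48 hours, with cells grown in 96-well plates and compounds tested at five concentrations. GI50 marks 50% less growth. TGI marks complete inhibition of growth.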

For `CC[C@]1(O)CC2CN(CCc3c([nH]c4ccccc34)[C@@](C(=O)OC)(c3cc4c(cc3OC)N(C)[C@H]3[C@@](O)(C(=O)OC)[C@H](OC(C)=O)[C@]5(CC)C=CCN6CC[C@]43[C@@H]65)C2)C1` (stereo not given in full), the GI50 in [1] was under 0.005 µM; in assay [2] it was 0.0588 µM; in assay [3] it was under 0.005 µM; in assay [4], under 0.005 µM; in [5] it was under 0.005 µM; in [6], under 0.005 µM. For the same compound, the GI50 in [7], in assay [8] and in assay [9] was under 0.005 µM throughout. The TGI in [1] was 3.13 µM; in assay [2], over 21.3 µM; in assay [3], 0.119 µM; in assay [4] it was 0.0417 µM; in [5], 6.07 µM; in assay [6] it was under 0.005 µM. Moreover, the TGI in assay [7] worked out at 0.721 µM; in [8], 12.3 µM; in [9], 6.95 µM.

Take `COc1ccc(/C=N/N=C(\N)NO)cc1OC`: the TGI was over 100 µM in [1]; over 100 µM in assay [2]; over 100 µM in [3]; 96.9 µM in [4]; over 100 µM in [7]; over 100 µM in assay [9].

`O=C1c2cccc3cc([N+](=O)[O-])cc(c23)C(=O)N1CCNCCNCCNCCN1C(=O)c2cccc3cc([N+](=O)[O-])cc(c23)C1=O`: the TGI is 1.08 µM and 0.612 µM in assay [1]; 1.08 µM in [2]; 0.112 µM in assay [3]; 0.161 µM in assay [4]; 1.13 µM in assay [7]; 0.283 µM in [9].

Take `CCN1C2=NC(=O)N(C)C(=O)C2(Cl)C(C(SC)S(=O)(=O)c2ccc(C)cc2)c2ccccc21` (stereo not given): the TGI is 52.9 µM in [1]; 71.3 µM in assay [3]; 52.5 µM in [4]; 13.3 µM in [7]; over 100 µM in assay [9].

For `CCCCCCCCCC(=O)CC(=O)c1ccc(O)cc1O`, the TGI in assay [1] was over 100 µM; in [2], over 100 µM; in assay [3] it was 79.4 µM; in assay [4], 54.7 µM; in [7] it was 49.7 µM; in [9] it was 49.9 µM.

In the case of `COC(=O)C1=C(C)N(NC(N)=O)C2(N)N(NC(N)=O)C(C)=C(C(=O)OC)C12C(=O)OC` (stereo not given), the TGI in [1], in assay [2], in [3], in [4], in assay [7] and in assay [9] was over 100 µM throughout.

Consider `O=C1NC(=S)NC(=O)C1=Cc1cc2c(cc1[N+](=O)[O-])OCO2`, for which the TGI in [1], in assay [2], in assay [4], in assay [7] and in assay [9] was over 100 µM in each case.

As for `CC(=O)OC1C(=O)C(O)C(C)OC1O[C@@H]1C[C@@]2(C)[C@@H]3CC=C4[C@@H](C[C@H](O)C(=O)C4(C)C)[C@]3(C)C(=O)C[C@]2(C)[C@H]1[C@@](C)(O)C(=O)/C=C/C(C)(C)O` (stereo not given in full), the TGI in assay [1] was 4.64 µM; in assay [2] it was over 9.45 µM; in assay [3], 2.52 µM; in [4], over 10 µM; in assay [7], over 10 µM. In addition, the GI50 in assay [9] is 0.055 µM.

Consider `O=c1n(C2CCCCC2)c(=C(Cl)Cl)c(=C(Cl)Cl)n1C1CCCCC1`, for which the TGI in assay [1], in assay [2], in [7] and in [9] was over 100 µM each time.

`O=C(O)C(=Cc1ccnc2ccccc12)C(=O)O`: the TGI in assay [1], in assay [2], in assay [3], in [4], in assay [5] and in assay [7] was over 100 µM in each case. In addition, the TGI in [8], in assay [9] and in assay [10] was over 100 µM throughout.

In the case of `CCOc1ccc(N=Cc2cccc3cccnc23)cc1`, the TGI in assay [1], in assay [2], in [3], in [4], in [7] and in [9] was over 100 µM each time.

As for `COc1ccc(C=C2C(=O)OC(C)(C)OC2=O)cc1OC`, the TGI in assay [1], in [2], in [4], in assay [7] and in assay [9] was over 100 µM throughout.

On to `COc1ccc(/C=C/C(=O)c2cc3c(N)c(C(=O)Nc4ccccc4Cl)sc3nc2C)cc1`, for which the GI50 in [1] was 0.839 µM; in assay [2], 2.96 µM; in assay [3], 0.689 µM; in assay [4], 0.481 µM; in assay [5], 0.25 µM; in assay [7], 4.59 µM. For the same compound, the values for the GI50 in assay [8], in assay [9] and in [10] were 2.92 µM, 1.31 µM and 2.95 µM, respectively. Moreover, the TGI in [1] is 2.18 µM; in assay [2], over 50 µM; in assay [3] it was 4.18 µM; in assay [4] it was over 50 µM; in assay [5] it was 22 µM; in assay [7], over 50 µM. Also, the TGI was over 50 µM in assay [8], 16.7 µM in [9] and over 50 µM in assay [10].

Turning to `CC(O)/C=C/C(CCC(C)CO)C(C)C` (stereo not given), the TGI in assay [1], in [2], in assay [3], in assay [4], in assay [7] and in [9] was over 100 µM in each case.

Regarding `CC(C)NCCNC(=O)c1ccccc1Nc1c(Cl)cccc1Cl`, the TGI in assay [1] is 16 µM; in assay [2], 26.5 µM; in [4], 25.1 µM; in assay [7], 27.3 µM.

For `O=C1C(Cl)C(c2cccc(O)c2)N1n1cnc2ccccc2c1=O` (stereo not given), the TGI in assay [1], in [2], in assay [4], in assay [7] and in assay [9] was over 100 µM in each case.
